Earlier results, collected in paper PMC9851200, “Multiparameter phenotypic screening for endogenous TFEB and TFE3 translocation identifies novel chemical series modulating lysosome function” (Autophagy, 2022).

Key:
Design in all cases: method as in original PKIS2 published data
[1] = biological target: T1, kinases (KINOMEscan panel) (Homo sapiens, UniProt P54762); conditions: kinase EPHB1; Published KINOMEscan; ref original PKIS2 published data; cited from earlier work
T1 sequence (P54762 18-984): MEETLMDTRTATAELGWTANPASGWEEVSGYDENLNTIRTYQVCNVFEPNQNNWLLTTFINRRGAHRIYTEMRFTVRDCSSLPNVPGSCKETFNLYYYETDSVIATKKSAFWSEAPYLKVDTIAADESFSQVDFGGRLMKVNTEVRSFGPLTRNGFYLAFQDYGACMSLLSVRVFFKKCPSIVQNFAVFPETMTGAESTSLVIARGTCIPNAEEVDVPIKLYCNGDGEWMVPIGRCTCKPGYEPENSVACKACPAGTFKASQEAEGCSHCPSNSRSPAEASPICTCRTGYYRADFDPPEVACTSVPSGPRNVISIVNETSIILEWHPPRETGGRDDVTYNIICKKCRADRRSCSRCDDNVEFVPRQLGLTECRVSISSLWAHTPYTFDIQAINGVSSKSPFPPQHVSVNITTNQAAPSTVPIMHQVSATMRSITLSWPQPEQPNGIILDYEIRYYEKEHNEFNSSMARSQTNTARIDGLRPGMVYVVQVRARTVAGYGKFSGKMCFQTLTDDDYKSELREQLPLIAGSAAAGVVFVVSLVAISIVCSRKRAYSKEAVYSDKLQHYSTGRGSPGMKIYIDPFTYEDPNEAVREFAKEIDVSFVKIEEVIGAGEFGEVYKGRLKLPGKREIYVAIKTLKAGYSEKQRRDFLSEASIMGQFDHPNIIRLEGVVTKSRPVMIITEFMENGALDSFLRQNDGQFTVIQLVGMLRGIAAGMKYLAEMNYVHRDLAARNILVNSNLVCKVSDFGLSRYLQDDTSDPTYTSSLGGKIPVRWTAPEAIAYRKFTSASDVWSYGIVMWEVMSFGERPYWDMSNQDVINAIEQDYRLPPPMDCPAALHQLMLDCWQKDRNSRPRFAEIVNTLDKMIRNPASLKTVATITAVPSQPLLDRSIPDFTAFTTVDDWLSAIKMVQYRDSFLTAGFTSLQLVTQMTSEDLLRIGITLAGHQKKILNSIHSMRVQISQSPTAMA

[2] = biological target: T2, kinases (KINOMEscan panel) (Homo sapiens, UniProt Q9UHD2); conditions: TBK1; Published KINOMEscan; ref original PKIS2 published data; cited from earlier work
T2 sequence (Q9UHD2 1-729): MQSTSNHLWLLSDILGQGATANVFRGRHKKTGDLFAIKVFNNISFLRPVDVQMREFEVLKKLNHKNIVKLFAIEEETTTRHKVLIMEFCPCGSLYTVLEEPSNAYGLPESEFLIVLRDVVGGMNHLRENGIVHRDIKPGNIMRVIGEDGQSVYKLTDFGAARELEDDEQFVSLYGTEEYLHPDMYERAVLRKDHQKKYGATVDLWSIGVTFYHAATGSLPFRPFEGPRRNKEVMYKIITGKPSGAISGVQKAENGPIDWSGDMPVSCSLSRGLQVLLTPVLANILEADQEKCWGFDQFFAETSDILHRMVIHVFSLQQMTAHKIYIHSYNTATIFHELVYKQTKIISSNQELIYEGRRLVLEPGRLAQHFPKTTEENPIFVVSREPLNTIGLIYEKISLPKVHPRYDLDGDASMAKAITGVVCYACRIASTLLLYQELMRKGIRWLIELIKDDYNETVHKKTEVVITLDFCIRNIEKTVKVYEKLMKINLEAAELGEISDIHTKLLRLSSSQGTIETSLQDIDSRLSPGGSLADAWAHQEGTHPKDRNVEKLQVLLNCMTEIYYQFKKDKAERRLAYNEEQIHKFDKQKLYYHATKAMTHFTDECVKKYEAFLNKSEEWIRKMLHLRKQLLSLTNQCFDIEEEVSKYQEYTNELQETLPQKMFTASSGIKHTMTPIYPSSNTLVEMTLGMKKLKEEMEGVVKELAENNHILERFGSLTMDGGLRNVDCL

[3] = biological target: kinases (KINOMEscan panel) (Homo sapiens, UniProt O43293); conditions: DAPK3; Published KINOMEscan; ref original PKIS2 published data; cited from earlier work
[4] = biological target: kinases (KINOMEscan panel) (Homo sapiens, UniProt P49137); conditions: kinase MAPKAPK2; Published KINOMEscan; ref original PKIS2 published data; cited from earlier work
[5] = biological target: kinases (KINOMEscan panel) (Homo sapiens, UniProt Q14012); conditions: CAMK1; Published KINOMEscan; ref original PKIS2 published data; cited from earlier work
[6] = biological target: kinases (KINOMEscan panel) (Homo sapiens, UniProt Q86Y07); conditions: Published KINOMEscan; ref original PKIS2 published data; cited from earlier work
[7] = biological target: T3, kinases (KINOMEscan panel) (Homo sapiens, UniProt P41743); conditions: PRKCI; Published KINOMEscan; ref original PKIS2 published data; cited from earlier work
T3 sequence (P41743 1-596): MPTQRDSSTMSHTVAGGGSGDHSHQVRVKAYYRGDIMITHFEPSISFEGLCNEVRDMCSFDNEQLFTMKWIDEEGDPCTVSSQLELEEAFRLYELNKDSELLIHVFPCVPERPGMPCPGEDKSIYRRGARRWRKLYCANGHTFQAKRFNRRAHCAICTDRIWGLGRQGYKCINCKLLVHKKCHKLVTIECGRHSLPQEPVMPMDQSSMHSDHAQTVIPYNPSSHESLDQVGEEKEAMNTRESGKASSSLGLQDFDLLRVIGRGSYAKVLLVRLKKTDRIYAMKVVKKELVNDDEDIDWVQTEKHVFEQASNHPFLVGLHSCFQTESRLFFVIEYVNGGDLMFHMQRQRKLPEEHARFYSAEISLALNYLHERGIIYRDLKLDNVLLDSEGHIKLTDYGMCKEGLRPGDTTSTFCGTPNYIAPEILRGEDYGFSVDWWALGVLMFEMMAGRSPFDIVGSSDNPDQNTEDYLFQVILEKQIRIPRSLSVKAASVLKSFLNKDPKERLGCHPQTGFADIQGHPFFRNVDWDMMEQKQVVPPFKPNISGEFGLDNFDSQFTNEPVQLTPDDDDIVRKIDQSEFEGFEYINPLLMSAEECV

kinases (KINOMEscan panel) (Homo sapiens, UniProt O43293), sequence (O43293 whole entry): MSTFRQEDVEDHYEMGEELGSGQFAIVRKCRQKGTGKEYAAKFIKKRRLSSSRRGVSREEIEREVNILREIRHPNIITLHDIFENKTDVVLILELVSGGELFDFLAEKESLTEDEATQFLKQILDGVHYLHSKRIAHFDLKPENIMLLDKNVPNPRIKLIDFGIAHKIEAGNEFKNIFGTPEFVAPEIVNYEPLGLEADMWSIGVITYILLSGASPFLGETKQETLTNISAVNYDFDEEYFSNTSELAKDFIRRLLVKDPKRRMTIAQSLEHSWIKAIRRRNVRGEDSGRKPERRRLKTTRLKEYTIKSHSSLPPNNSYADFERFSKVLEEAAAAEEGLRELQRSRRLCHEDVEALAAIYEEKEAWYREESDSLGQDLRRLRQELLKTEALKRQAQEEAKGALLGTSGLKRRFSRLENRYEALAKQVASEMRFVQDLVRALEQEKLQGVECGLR
kinases (KINOMEscan panel) (Homo sapiens, UniProt P49137), sequence (P49137 whole entry): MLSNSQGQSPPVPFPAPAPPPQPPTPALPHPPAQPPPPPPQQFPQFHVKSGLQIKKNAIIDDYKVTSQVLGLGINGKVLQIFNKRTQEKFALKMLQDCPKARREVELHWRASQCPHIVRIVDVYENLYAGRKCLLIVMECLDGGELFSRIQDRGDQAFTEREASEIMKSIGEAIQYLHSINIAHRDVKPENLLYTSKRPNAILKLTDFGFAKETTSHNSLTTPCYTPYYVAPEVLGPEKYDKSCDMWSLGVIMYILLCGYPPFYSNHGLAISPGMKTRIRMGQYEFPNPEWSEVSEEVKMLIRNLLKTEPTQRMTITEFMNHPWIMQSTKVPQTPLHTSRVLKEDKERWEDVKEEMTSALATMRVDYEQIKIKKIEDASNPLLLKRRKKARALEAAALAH
kinases (KINOMEscan panel) (Homo sapiens, UniProt Q86Y07), sequence (Q86Y07 whole entry): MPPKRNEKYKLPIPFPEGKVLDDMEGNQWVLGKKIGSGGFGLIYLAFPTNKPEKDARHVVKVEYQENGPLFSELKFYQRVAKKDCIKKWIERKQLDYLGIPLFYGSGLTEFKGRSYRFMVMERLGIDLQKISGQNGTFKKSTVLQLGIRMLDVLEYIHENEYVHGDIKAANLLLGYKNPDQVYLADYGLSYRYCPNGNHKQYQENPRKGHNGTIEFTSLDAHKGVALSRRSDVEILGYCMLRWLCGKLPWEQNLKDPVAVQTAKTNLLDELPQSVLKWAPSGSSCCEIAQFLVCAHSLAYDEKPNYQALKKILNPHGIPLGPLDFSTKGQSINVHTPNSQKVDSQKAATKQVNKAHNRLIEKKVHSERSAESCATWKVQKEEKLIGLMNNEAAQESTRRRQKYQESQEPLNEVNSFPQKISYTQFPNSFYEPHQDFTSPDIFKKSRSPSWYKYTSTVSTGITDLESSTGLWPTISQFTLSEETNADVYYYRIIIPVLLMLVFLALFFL
kinases (KINOMEscan panel) (Homo sapiens, UniProt Q14012), sequence (Q14012 whole entry): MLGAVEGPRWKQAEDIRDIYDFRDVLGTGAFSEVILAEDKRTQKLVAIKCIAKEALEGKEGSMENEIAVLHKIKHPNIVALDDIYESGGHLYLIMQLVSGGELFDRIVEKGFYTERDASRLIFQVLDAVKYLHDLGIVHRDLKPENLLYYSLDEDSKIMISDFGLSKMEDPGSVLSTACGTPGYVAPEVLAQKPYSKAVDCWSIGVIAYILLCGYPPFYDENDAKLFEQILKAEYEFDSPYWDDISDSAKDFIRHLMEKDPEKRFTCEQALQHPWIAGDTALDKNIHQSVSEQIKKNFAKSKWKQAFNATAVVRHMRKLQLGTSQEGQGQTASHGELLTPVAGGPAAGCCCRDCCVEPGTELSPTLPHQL

In the case of `Cc1cccc(-c2nc(Nc3ccncc3)c3ccccc3n2)n1` [NK215], the “KINOMEscan EPHB1” value [1] is given as 3, the “KINOMEscan TBK1” value [2] is given as 41 and the “KINOMEscan DAPK3” value [3] is given as 17. The “KINOMEscan MAPKAPK2” value [4] was 0, the “KINOMEscan CAMK1” value [5] was 0 and the “KINOMEscan VRK2” value [6] was 0. The “KINOMEscan PRKCI” value [7] was 32.
